Measured values: patent US8242118B2, “Arylsulfonamide derivatives for use as CCR3 antagonists in the treatment of inflammatory and immunological disorders” (Axikin Pharmaceuticals Inc., priority 2001, dated 2012)
Where a name gives a salt, the structure may show the parent alone.

Molecular target: T1, Human CCR3 (Homo sapiens, UniProt P51677)
T1 construct: The cloned CCR3 cDNA was constructed with pcDNA3 vector and transfected into a IC562 cell line; expressed in transfected cells
T1 sequence (P51677 1-355): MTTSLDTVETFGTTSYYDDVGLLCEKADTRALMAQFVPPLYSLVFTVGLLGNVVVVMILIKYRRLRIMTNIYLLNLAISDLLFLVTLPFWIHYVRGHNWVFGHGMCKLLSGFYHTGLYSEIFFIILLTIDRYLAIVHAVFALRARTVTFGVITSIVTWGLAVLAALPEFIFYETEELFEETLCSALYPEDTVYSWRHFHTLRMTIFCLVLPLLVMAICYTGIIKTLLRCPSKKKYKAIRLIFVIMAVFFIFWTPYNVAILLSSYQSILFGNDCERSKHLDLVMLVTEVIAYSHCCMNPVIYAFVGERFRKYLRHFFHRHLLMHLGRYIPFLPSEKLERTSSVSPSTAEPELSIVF
Experiment: Receptor binding assay (RBA), [125I]-eotaxin
Conditions: human CCR3-transformed K562 cells, 0.1 nM [125I]-eotaxin; compounds of about 40 to 90% purity; read-out: Activity grade RBA (IC50 class)
Method: [Determination of IC50 Values of Compounds in Receptor Binding Assay]
• Human CCR3-transformed K562 cells were used. The cloned CCR3 cDNA was constructed with pcDNA3 vector and transfected into a IC562 cell line. The human CCR3-transformed K562 cells were maintained in RPMI-1640 (Cat.#22400-089, Life Technologies) supplemented with 10% FCS (Cat.#A-1115-L, Hyclone), 55 μM 2-mercaptoethanol (Cat.#21985-023, Life Technologies), 1 mM sodium pyruvate (Cat.#11360-070, Life Technologies), 100 units/ml of penicillin G and 100 μg/ml of streptomycin (Cat.#15140-122, Life Technologies), and 0.4 mg/ml of Geneticin (Cat.#10131-035, Life Technologies)(hereinafter called “culture medium”). Before the receptor binding assay, cells were pretreated with 5 mM sodium butyrate (Cat.#193-01522, Wako)-containing the culture medium (2×10^5 cells/ml) for 20-24 hours to increase the expression of CCR3. (2) Receptor Binding Assay (RBA) • Butyrate-pretreated cells, suspended in binding buffer (25 mM HEPES pH 7.6, 1 mM CaCl2, 5 mM MgCl2, 0.5% BSA, 0.1% NaN3) at a cell density of 2×10^6 cells/ml, were added into 60 μl/well in the 96-well round bottom polypropylene plate (Cat.#3365, Costar). Compounds, diluted with the binding buffer (4-times higher concentration of the final concentration), were added into 30 μl/well in the polypropylene plate. [^125I]-labeled human eotaxin (Cat.#IM290, Amersham Pharmacia Biotech), diluted with the binding buffer at the concentration of 0.4 nM (final concentration; 0.1 nM), was added into 30 μl/well in the polypropylene plate. Total 120 μl/well of binding reaction mixture (60 μl/well of cell suspension, 30 μl/well of compound solution, and 30 μl/well of [^125I]-labeled eotaxin) were incubated in the polypropylene plate for 1 hour at room temperature after the incubation, 100 μl/well of the reaction mixture was transferred to a filtration plate (Cat.#MAFB-N0B, Millipore), and washed with the washing buffer (25 mM HEPES pH 7.6, 1 mM CaCl2, 5 mM MgCl2, 0.5% BSA, 0.1% NaN3, 0.5 M NaCl) twice. The 96-well filtration plate was pretreated with 100 μl/well of 0.5% polyethylenimine (Cat.#P-3143, Sigma) for 2-4 hours at room temperature and washed with the washing buffer twice before use. The non-specific binding was determined by parallel incubation in the presence of 500 nM of non-labeled eotaxin (Cat.#23209, Genzyme Techne). The radioactivities remained on the filter were measured by liquid scintillation counter (TopCount™, Packard) after an addition of 45 μl/well of scintillant (Microscint20, Cat.#6013621, Packard). The inhibition percent at each concentration of compound was calculated, and IC50 values were determined from the inhibition curve. [Determination of IC50 Values of Compounds in Calcium Mobilization Assay] (IC50 Ca2+) (1) Cell • Human CCR3-transformed K562 cells were used. The human CCR3-transformed K562 cells were maintained in RPMI-1640 supplemented with 10% FCS, 55 μM 2-mercaptoethanol (Cat.#21985-023, Life Technologies), 1 mM sodium pyruvate, 100 units/ml of penicillin G and 100 μg/ml of streptomycin and 0.4 mg/ml of Geneticin. Before the calcium mobilization assay, cells were pretreated with 5 mM sodium butyrate-containing the culture medium (2×10^5 cells/ml) for 20-24 hours to increase the expression of CCR3. (2) Calcium Mobilization Assay • Butyrate-pretreated cells were loaded with Fluo-3AM (Cat.#F-1242, Molecular Probes) in loading buffer (Hanks' solution Cat.#05906 Nissui, 20 mM HEPES pH 7.6, 0.1% BSA, 1 mM probenecid Cat.#P-8761 Sigma, 1 μM Fluo-3AM, 0.01% pluronic F-127 Cat.#P-6866 Molecular Probes) at a cell density of 1×10^7 cells/ml. Then, cells were washed with calcium assay buffer (Hanks' solution Cat.#05906 Nissui, 20 mM HEPES pH 7.6, 0.1% BSA, 1 mM Probenecid Cat.#P-8761 Sigma). The cell suspension (3.3×10^6 cells/ml) was added into 60 μl/well in the 96-well clear bottom black plate (Cat.#3904, Costar). […]

Structure (SMILES) | IC50
Cc1cc(C)cc(Oc2ccc([N+](=O)[O-])cc2S(=O)(=O)N2CCN(C(=O)OC(C)(C)C)CC2)c1 [Example 1-1, tert-butyl 4-{[2-(3,5-dimethylphenoxy)-5-nitrophenyl]sulfonyl}-1-piperazinecarboxylate] | > 10000 nM
Cc1cc(C)cc(Oc2ccc([N+](=O)[O-])cc2S(=O)(=O)N2CCNCC2)c1 [Example 1-2, 1-{[2-(3,5-dimethylphenoxy)-5-nitrophenyl]sulfonyl}piperazine hydrochloride] | < 1000 nM
Cl.O=[N+]([O-])c1ccc(Oc2cc(F)cc(F)c2)c(S(=O)(=O)N2CCNCC2)c1 [Example 1-4] | < 1000 nM
COc1cc(OC)cc(Oc2ccc([N+](=O)[O-])cc2S(=O)(=O)N2CCNCC2)c1.Cl [Example 1-5] | > 10000 nM
Cl.O=[N+]([O-])c1ccc(Oc2cc(C(F)(F)F)cc(C(F)(F)F)c2)c(S(=O)(=O)N2CCNCC2)c1 [Example 1-6] | < 1000 nM
CC(C)(C)c1cc(Oc2ccc([N+](=O)[O-])cc2S(=O)(=O)N2CCNCC2)cc(C(C)(C)C)c1.Cl [Example 1-7] | > 10000 nM
Cc1cc(Oc2ccc([N+](=O)[O-])cc2S(=O)(=O)N2CCNCC2)cc(C(C)C)c1.Cl [Example 1-8] | < 1000 nM
CC(C)c1cccc(Oc2ccc([N+](=O)[O-])cc2S(=O)(=O)N2CCNCC2)c1.Cl [Example 1-9] | < 1000 nM
Cl.N#Cc1cccc(Oc2ccc([N+](=O)[O-])cc2S(=O)(=O)N2CCNCC2)c1 [Example 1-10] | 1000 to 10000 nM
Cl.O=[N+]([O-])c1ccc(Oc2cccc3ccccc23)c(S(=O)(=O)N2CCNCC2)c1 [Example 1-11] | 1000 to 10000 nM
Cc1ccccc1Oc1ccc([N+](=O)[O-])cc1S(=O)(=O)N1CCNCC1.Cl [Example 1-12] | 1000 to 10000 nM
Cl.Cl.Cl.Nc1ccc(Oc2ccc([N+](=O)[O-])cc2S(=O)(=O)N2CCNCC2)cc1 [Example 1-13] | > 10000 nM
O=[N+]([O-])c1ccc(Oc2ccccc2)c(S(=O)(=O)N2CCNCC2)c1 [Example 1-18] | 1000 to 10000 nM
COc1ccc(Oc2ccc([N+](=O)[O-])cc2S(=O)(=O)N2CCNCC2)cc1 [Example 1-19] | > 10000 nM
O=[N+]([O-])c1ccc(Oc2ccc(F)cc2)c(S(=O)(=O)N2CCNCC2)c1 [Example 1-20] | > 10000 nM
CC(C)(C)c1ccc(Oc2ccc([N+](=O)[O-])cc2S(=O)(=O)N2CCNCC2)cc1 [Example 1-21] | > 10000 nM
O=[N+]([O-])c1ccc(Oc2ccc(Cl)cc2)c(S(=O)(=O)N2CCNCC2)c1 [Example 1-22] | > 10000 nM
O=[N+]([O-])c1ccc(Oc2cccc(F)c2)c(S(=O)(=O)N2CCNCC2)c1 [Example 1-25] | < 1000 nM
COc1ccccc1Oc1ccc([N+](=O)[O-])cc1S(=O)(=O)N1CCNCC1.Cl [Example 1-27] | < 1000 nM
Cl.O=[N+]([O-])c1ccc(Oc2ccccc2Cl)c(S(=O)(=O)N2CCNCC2)c1 [Example 1-28] | 1000 to 10000 nM
N#Cc1ccccc1Oc1ccc([N+](=O)[O-])cc1S(=O)(=O)N1CCNCC1 [Example 1-29] | 1000 to 10000 nM
CC(=O)c1ccccc1Oc1ccc([N+](=O)[O-])cc1S(=O)(=O)N1CCNCC1.Cl [Example 1-30] | > 10000 nM
CC(=O)c1cccc(Oc2ccc([N+](=O)[O-])cc2S(=O)(=O)N2CCNCC2)c1.Cl [Example 1-31] | > 10000 nM
CN(C)c1cccc(Oc2ccc([N+](=O)[O-])cc2S(=O)(=O)N2CCNCC2)c1.Cl [Example 1-32] | > 10000 nM

Structure (SMILES) | IC50
Cl.O=[N+]([O-])c1ccc(Oc2cc(Cl)cc(Cl)c2)c(S(=O)(=O)N2CCNCC2)c1 [Example 1-33] | < 1000 nM
Cl.O=[N+]([O-])c1ccc(Oc2cccc(C(F)(F)F)c2)c(S(=O)(=O)N2CCNCC2)c1 [Example 1-34] | < 1000 nM
Cc1cc(C)cc(Oc2ccc(S(C)(=O)=O)cc2S(=O)(=O)N2CCNCC2)c1.Cl [Example 1-35] | 1000 to 10000 nM
CC(C)(C)c1cccc(Oc2ccc([N+](=O)[O-])cc2S(=O)(=O)N2CCNCC2)c1.Cl [Example 1-36] | 1000 to 10000 nM
COc1cc(C)cc(Oc2ccc([N+](=O)[O-])cc2S(=O)(=O)N2CCNCC2)c1.Cl [Example 1-37] | < 1000 nM
Cl.O=[N+]([O-])c1cccc(Oc2ccc([N+](=O)[O-])cc2S(=O)(=O)N2CCNCC2)c1 [Example 1-38] | 1000 to 10000 nM
Cl.O=[N+]([O-])c1ccc(Oc2cccc(Br)c2)c(S(=O)(=O)N2CCNCC2)c1 [Example 1-39] | < 1000 nM
CCCCc1ccccc1Oc1ccc([N+](=O)[O-])cc1S(=O)(=O)N1CCNCC1.Cl [Example 1-40] | < 1000 nM
Cc1cc(C)cc(Oc2ccccc2S(=O)(=O)N2CCNCC2)c1.Cl [Example 1-41] | > 10000 nM
Cc1cc(C)cc(Oc2ccc(C(=O)N3CCNCC3)cc2S(=O)(=O)N2CCNCC2)c1.Cl.Cl [Example 1-42] | > 10000 nM
Cc1cc(C)cc(Oc2ccc(C(F)(F)F)cc2S(=O)(=O)N2CCNCC2)c1.Cl [Example 1-43] | < 1000 nM
Cc1cc(C)cc(Oc2cc(C)c([N+](=O)[O-])cc2S(=O)(=O)N2CCNCC2)c1.Cl [Example 1-44] | 1000 to 10000 nM
Cc1cc(Oc2cc(Cl)cc(Cl)c2)c(S(=O)(=O)N2CCNCC2)cc1[N+](=O)[O-].Cl [Example 1-45] | < 1000 nM
Cc1cc(C)cc(Oc2cc(C(F)(F)F)ccc2S(=O)(=O)N2CCNCC2)c1.Cl [Example 1-46] | > 10000 nM
COc1cc(Oc2cc(C)cc(C)c2)c(S(=O)(=O)N2CCNCC2)cc1[N+](=O)[O-].Cl [Example 1-47] | 1000 to 10000 nM
O=[N+]([O-])c1ccc(Oc2cc(Cl)cc(Cl)c2)c(S(=O)(=O)N2CC3CCCNC3C2)c1 (centres unmarked) [Example 1-48] | < 1000 nM
Cl.O=S(=O)(c1cc(F)ccc1Oc1cc(Cl)cc(Cl)c1)N1CCNCC1 [Example 1-51] | < 1000 nM
Cc1cc(C)cc(Oc2ccc([N+](=O)[O-])cc2S(=O)(=O)N2CC(C)NCC2C)c1.Cl (centres unmarked) [Example 1-54] | < 1000 nM
Cl.O=S(=O)(c1cc(Cl)ccc1Oc1cc(Cl)cc(Cl)c1)N1CCNCC1 [Example 1-56] | < 1000 nM
Cl.O=S(=O)(c1cc(Br)ccc1Oc1cc(Cl)cc(Cl)c1)N1CCNCC1 [Example 1-57] | < 1000 nM
Cc1cc(Oc2ccc([N+](=O)[O-])cc2S(=O)(=O)N2CCNCC2)ccc1Cl.Cl [Example 1-60] | 1000 to 10000 nM
Cc1ccc(C)c(Oc2ccc([N+](=O)[O-])cc2S(=O)(=O)N2CCNCC2)c1C.Cl [Example 1-61] | 1000 to 10000 nM
Cc1cccc(Oc2ccc([N+](=O)[O-])cc2S(=O)(=O)N2CCNCC2)c1C.Cl [Example 1-62] | < 1000 nM
